# Results reported in PMC12432892, “Therapeutic applications of interface-mimicking peptides for targeting the SARS-CoV-2 NSP12-NSP8 RdRp complex” (Molecular Therapy, 2025).
# How the values were obtained:
# [1] = in vitro; format: cell-based; conditions: Vero-E6 cells, MTT, 40 μM peptide, read-out: cell viability
# Procedure: (§1) The cytotoxicity of test samples was assessed in Vero-E6 cells using the MTT assay, following the manufacturer’s protocol for the CellTiter 96 Non-radioactive Cell Proliferation Assay (Promega). Briefly, […] cells were seeded in 96-well plates at a density of 2 × 10^4 cells per well and incubated for 24 h. Following this, cells were treated with test samples at concentrations ranging from 0.2 to 40 μM and incubated for an additional 24 h. After incubation, 15 μL of MTT reagent (dye solution) was added to each well, and the cells were further incubated for 4 h. Subsequently, 100 μL of solubilization/stop solution was added to dissolve the formazan crystals. The optical density was measured at 570 nm, and statistical significance was determined by comparing the results to those of the mock-treated cells. […]
# (§2) Figure S5. MTT assay of peptides including scrambled version
# (§3) Vero-E6 cells were treated with NSP8-based peptides at concentrations ranging from 0.2 to 40 μM and incubated for an additional 24 hours. Cytotoxicity was evaluated using the MTT assay to assess the impact of the peptides on cell viability. According to IOS 10993-5 guidelines, cell […]
# (§4) moderate cytotoxicity, and below 40% signifies strong cytotoxicity. […]
# [2] = tested on: Vero-E6 cells; assay: in vitro; format: cell-based; conditions: MTT, 24 h
# Procedure: as §1, §2, §3, §4
# [3] = tested on: wild-type ancestral SARS-CoV-2 L-clade strain; format: cell-based
# [4] = Plasma stability; format: in vitro ADME; conditions: mouse plasma (ICR, male, K2-EDTA), LC-MS/MS; for Plasma Stability Half-life / time to complete loss of detectable peptide in plasma: 10 μM; for Plasma Stability Half-life / half-life at 10 μM: 37°C, 0, 20, 40, 60, 120 min, duplicate (n = 2); for time to complete loss of detectable peptide in plasma: 37°C, n = 2
# Procedure: Plasma stability of the peptides was evaluated using mouse plasma (ICR, male, K2-EDTA) purchased from Innovative Research. Each peptide (10 μM final concentration) was incubated at 37°C for 0, 20, 40, 60, and 120 min. Samples were processed and analyzed by LC-MS/MS, as described above. Procaine was used as a positive control.
# (§5) All in vitro stability experiments were performed in duplicate (n = 2). Since the standard deviation was less than 20% in all cases, no additional replicates were conducted.
# [5] = Liver microsomal stability; format: in vitro ADME, mouse; conditions: for Metabolic Stability Evaluation: classified based on in vivo CL_int values (footnote of Table S3); for half-life at 10 μM / remaining at 1 h, 10 μM / microsomal CLint at 10 μM: mouse liver microsomes (CD-1, pooled), 37°C; for half-life at 10 μM: NADPH, 0, 5, 15, 30, 60 min, duplicate (n = 2); for half-life at 10 μM / remaining at 1 h, 10 μM: LC-MS/MS; for remaining at 1 h, 10 μM / microsomal CLint at 10 μM: NADPH; for remaining at 1 h, 10 μM: n = 2, read-out: Microsomal Stability Remaining at 60 min; for microsomal CLint at 10 μM: calculated from the depletion rate, read-out: CL_int, microsomal; for CL_int, in vivo: scaled from microsomal CL_int to in vivo liver clearance using established mouse parameters
# Procedure: Reactions were quenched and peptide concentrations were quantified using liquid chromatography-tandem mass spectrometry (LC-MS/MS) (AB Sciex QTRAP 6500+, Analyst software version 1.7.2). Clearance and half-life were calculated by non-compartmental analysis, and values were converted to hepatic clearance (CLint, liver) using standard scaling factors.
# as §5
# [6] = biological target: T1, SARS-CoV-2 RdRp (Severe acute respiratory syndrome coronavirus 2, UniProt P0DTD1); format: cell-based
# T1 construct: The SARS-CoV-2 reporter and NSP12, NSP7, and NSP8 genes were cloned into pcDNA3.1(+) plasmid vectors; expressed in transfected cells; host or cells: 293T (HEK-293T) cells, pcDNA3.1(+) plasmids
# [7] = biological target: T2, NSP12-NSP8-NSP7 complex (Severe acute respiratory syndrome coronavirus 2, UniProt P0DTD1); format: binding, SARS-CoV-2; conditions: for KD of the NSP8-NSP7-RNA ligand complex to NSP12 in the presence of the peptide: MST, labeled NSP12 20 nM, PBS with Tween 20, mean ± SD, more than three independent analyses, no-peptide Ctrl 11.9-12.9 nM
# T2 construct: made in house; host or cells: NSP12: baculovirus in Hifive insect cells; NSP7 and NSP8: E. coli BL21(DE3), pET-11
# [8] = concentrations between 20 and 40 μM
Compound,"viability at 24 h, 40 µM [1] [%]",cytotoxicity (ISO 10993-5) ([2]; at 40 μM),"viral replication (infectious virus titers, TCID50), in words [3]",Plasma Stability Half-life [4],time to complete loss of detectable peptide in plasma [4] [min],half-life at 10 μM [4] [min],Metabolic Stability Evaluation [5],half-life at 10 μM [5] [min],"remaining at 1 h, 10 μM [5] [%]",microsomal CLint at 10 μM [5] [µL/min/mg],"CL_int, in vivo [5] [mL/min/kg]","cytotoxicity (ISO 10993-5) [2, 8]","effect on polymerase activity, in words [6]",KD of the NSP8-NSP7-RNA ligand complex to NSP12 in the presence of the peptide [7] [nM],"peptide aggregation in the MST assay ([7]; PBS with Tween 20 buffer, peptide 24 μM)"
CC[C@H](C)[C@H](NC(=O)[C@H](CC(N)=O)NC(=O)[C@H](CC(N)=O)NC(=O)[C@H](CC(C)C)NC(=O)[C@H](C)NC(=O)[C@H](CC(=O)O)NC(=O)[C@H](CC(N)=O)NC(C)=O)C(=O)N[C@H](C(=O)N[C@@H](CC(N)=O)C(=O)N[C@@H](CC(N)=O)C(=O)N[C@@H](C)C(=O)N[C@@H](CCCNC(=N)N)C(=O)N[C@@H](CC(=O)O)C(=O)NCC(=O)N[C@@H](CS)C(=O)N[C@H](C(=O)N1CCC[C@H]1C(=O)N[C@@H](CC(C)C)C(=O)N[C@@H](CC(N)=O)C(=O)N[C@H](C(=O)N[C@H](C(=O)N1CCC[C@H]1C(=O)N[C@@H](CC(C)C)C(=O)N[C@H](C(=O)N[C@H](C(=O)N[C@@H](C)C(=O)NCC(=O)N[C@@H](CCCNC(=N)N)C(=O)N[C@@H](CCCCN)C(=O)N[C@@H](CCCCN)C(=O)N[C@@H](CCCNC(=N)N)C(=O)N[C@@H](CCCNC(=N)N)C(=O)N[C@@H](CCC(N)=O)C(=O)N[C@@H](CCCNC(=N)N)C(=O)N[C@@H](CCCNC(=N)N)C(=O)N[C@@H](CCCNC(=N)N)C(=O)N1CCC[C@H]1C(=O)N[C@@H](CCC(N)=O)C(N)=O)[C@@H](C)O)[C@@H](C)O)[C@@H](C)CC)[C@@H](C)CC)C(C)C)[C@@H](C)CC [N8-Pepα],> 80,no cytotoxicity (cell viability above 80% indicates no cytotoxicity),strongest antiviral effects,approximately 3 min,≤ 20,3,High metabolism,9.2,0,151,594.7,–,–,–,–
CC[C@H](C)[C@@H]1NC(=O)[C@H](CC(N)=O)NC(=O)[C@H](CC(N)=O)NC(=O)[C@H](CC(C)C)NC(=O)[C@H](C)NC(=O)[C@H](CC(=O)O)NC(=O)[C@H](CC(N)=O)NC(=O)[C@@H](NC(C)=O)CSSC[C@@H](C(=O)NCC(=O)N[C@@H](CCCNC(=N)N)C(=O)N[C@@H](CCCCN)C(=O)N[C@@H](CCCCN)C(=O)N[C@@H](CCCNC(=N)N)C(=O)N[C@@H](CCCNC(=N)N)C(=O)N[C@@H](CCC(N)=O)C(=O)N[C@@H](CCCNC(=N)N)C(=O)N[C@@H](CCCNC(=N)N)C(=O)N[C@@H](CCCNC(=N)N)C(=O)N2CCC[C@H]2C(=O)N[C@@H](CCC(N)=O)C(N)=O)NC(=O)[C@H](C)NC(=O)[C@H]([C@@H](C)O)NC(=O)[C@H]([C@@H](C)O)NC(=O)[C@H](CC(C)C)NC(=O)[C@@H]2CCCN2C(=O)[C@H]([C@@H](C)CC)NC(=O)[C@H]([C@@H](C)CC)NC(=O)[C@H](CC(N)=O)NC(=O)[C@H](CC(C)C)NC(=O)[C@@H]2CCCN2C(=O)[C@H](C(C)C)NC(=O)[C@H](CS)NC(=O)CNC(=O)[C@H](CC(=O)O)NC(=O)[C@H](CCCNC(=N)N)NC(=O)[C@H](C)NC(=O)[C@H](CC(N)=O)NC(=O)[C@H](CC(N)=O)NC(=O)[C@H]([C@@H](C)CC)NC1=O [N8-Pepα_cyc],> 80,no cytotoxicity (cell viability above 80% indicates no cytotoxicity),strongest antiviral effects,approximately 3 min,≤ 20,3,High metabolism,23.3,14.9,59.6,234.7,–,–,–,–
CC[C@H](C)[C@H](NC(=O)[C@H](CC(N)=O)NC(=O)[C@H](CC(C)C)NC(=O)[C@@H]1CCCN1C(=O)[C@@H](NC(=O)[C@H](CS)NC(=O)CNC(=O)[C@H](CC(=O)O)NC(=O)[C@H](CCCNC(=N)N)NC(=O)[C@H](C)NC(=O)CNC(=O)[C@H](CO)NC(=O)CNC(=O)[C@H](CCCNC(=N)N)NC(=O)[C@H](CCCNC(=N)N)NC(=O)[C@H](CCCNC(=N)N)NC(=O)[C@H](CCC(N)=O)NC(=O)[C@H](CCCNC(=N)N)NC(=O)[C@H](CCCNC(=N)N)NC(=O)[C@H](CCCCN)NC(=O)[C@H](CCCCN)NC(=O)[C@H](CCCNC(=N)N)NC(=O)CNC(=O)[C@H](Cc1ccc(O)cc1)NC(C)=O)C(C)C)C(=O)N[C@H](C(=O)N1CCC[C@H]1C(=O)N[C@@H](CC(C)C)C(=O)N[C@H](C(=O)N[C@H](C(=O)N[C@@H](C)C(=O)N[C@@H](C)C(=O)N[C@@H](CCCCN)C(=O)N[C@@H](CC(C)C)C(=O)N[C@@H](CCSC)C(=O)N[C@H](C(=O)N[C@H](C(=O)N[C@H](C(=O)N1CCC[C@H]1C(=O)N[C@@H](CC(=O)O)C(N)=O)[C@@H](C)CC)C(C)C)C(C)C)[C@@H](C)O)[C@@H](C)O)[C@@H](C)CC [N8-PepβD],–,–,–,approximately 3 min,≤ 20,3,High metabolism,17.8,7.8,77.9,306.7,weak cytotoxicity (80%-60% suggests weak cytotoxicity),–,–,–
CC[C@H](C)[C@H](NC(=O)[C@H](CC(N)=O)NC(=O)[C@H](CC(N)=O)NC(=O)[C@H](CC(C)C)NC(=O)CNC(=O)[C@H](CO)NC(=O)CNC(=O)[C@H](CCCNC(=N)N)NC(=O)[C@H](CCCNC(=N)N)NC(=O)[C@H](CCCNC(=N)N)NC(=O)[C@H](CCC(N)=O)NC(=O)[C@H](CCCNC(=N)N)NC(=O)[C@H](CCCNC(=N)N)NC(=O)[C@H](CCCCN)NC(=O)[C@H](CCCCN)NC(=O)[C@H](CCCNC(=N)N)NC(=O)CNC(=O)[C@H](Cc1ccc(O)cc1)NC(C)=O)C(=O)N[C@H](C(=O)N[C@@H](CC(N)=O)C(=O)N[C@@H](CC(N)=O)C(=O)N[C@@H](C)C(=O)N[C@@H](CCCNC(=N)N)C(=O)N[C@@H](CC(=O)O)C(=O)NCC(=O)N[C@@H](CS)C(=O)N[C@H](C(=O)N1CCC[C@H]1C(=O)N[C@@H](CC(C)C)C(=O)N[C@@H](CC(N)=O)C(=O)N[C@H](C(=O)N[C@H](C(=O)N1CCC[C@H]1C(=O)N[C@@H](CC(C)C)C(=O)N[C@H](C(=O)N[C@H](C(=O)N[C@@H](C)C(=O)N[C@@H](C)C(=O)N[C@@H](CCCCN)C(=O)N[C@@H](CC(C)C)C(=O)N[C@@H](CCSC)C(=O)N[C@H](C(=O)N[C@H](C(N)=O)C(C)C)C(C)C)[C@@H](C)O)[C@@H](C)O)[C@@H](C)CC)[C@@H](C)CC)C(C)C)[C@@H](C)CC [N8-Pepβ],–,–,–,approximately 3 min,≤ 20,3,High metabolism,9.8,15.1,142,559.2,weak cytotoxicity (80%-60% suggests weak cytotoxicity),–,–,–
CCC(CC)COC(=O)[C@H](C)N[P@](=O)(OC[C@H]1O[C@@](C#N)(c2ccc3c(N)ncnn23)[C@H](O)[C@@H]1O)Oc1ccccc1 [remdesivir],–,–,–,–,–,–,–,–,–,–,–,–,dose-dependent reduction in polymerase activity,–,–
Ac-INRNLTVPNICTPGILINADANADLNGRKKRRQRRRPQ-NH2 [N8-Pepα_sc],–,–,–,–,–,–,–,–,–,–,–,–,–,14.3 ± 1.0,–
Ac-YGRKKRRQRRRGSGINVDAPMNNAGLKLTIRPCLTVIVNANIL-NH2 [N8-Pepβ_sc],–,–,–,–,–,–,–,–,–,–,–,–,–,14.2 ± 0.9,–
Ac-YGRKKRRQRRRGSGVVIPKIDLAAPNLMDLVPCRIATTG-NH2 [N8-PepβD_sc],–,–,–,–,–,–,–,–,–,–,–,–,–,–,could not be determined due to peptide aggregation
